From patent US10065970B2 (Genentech, Inc., priority 2015, dated 2018) come the findings set out here.

In general, Ki refers to the dissociation constant of the complex between target and ligand, obtained from inhibition or displacement.

Chain of PI3Kα (alpha) (P42336 whole entry): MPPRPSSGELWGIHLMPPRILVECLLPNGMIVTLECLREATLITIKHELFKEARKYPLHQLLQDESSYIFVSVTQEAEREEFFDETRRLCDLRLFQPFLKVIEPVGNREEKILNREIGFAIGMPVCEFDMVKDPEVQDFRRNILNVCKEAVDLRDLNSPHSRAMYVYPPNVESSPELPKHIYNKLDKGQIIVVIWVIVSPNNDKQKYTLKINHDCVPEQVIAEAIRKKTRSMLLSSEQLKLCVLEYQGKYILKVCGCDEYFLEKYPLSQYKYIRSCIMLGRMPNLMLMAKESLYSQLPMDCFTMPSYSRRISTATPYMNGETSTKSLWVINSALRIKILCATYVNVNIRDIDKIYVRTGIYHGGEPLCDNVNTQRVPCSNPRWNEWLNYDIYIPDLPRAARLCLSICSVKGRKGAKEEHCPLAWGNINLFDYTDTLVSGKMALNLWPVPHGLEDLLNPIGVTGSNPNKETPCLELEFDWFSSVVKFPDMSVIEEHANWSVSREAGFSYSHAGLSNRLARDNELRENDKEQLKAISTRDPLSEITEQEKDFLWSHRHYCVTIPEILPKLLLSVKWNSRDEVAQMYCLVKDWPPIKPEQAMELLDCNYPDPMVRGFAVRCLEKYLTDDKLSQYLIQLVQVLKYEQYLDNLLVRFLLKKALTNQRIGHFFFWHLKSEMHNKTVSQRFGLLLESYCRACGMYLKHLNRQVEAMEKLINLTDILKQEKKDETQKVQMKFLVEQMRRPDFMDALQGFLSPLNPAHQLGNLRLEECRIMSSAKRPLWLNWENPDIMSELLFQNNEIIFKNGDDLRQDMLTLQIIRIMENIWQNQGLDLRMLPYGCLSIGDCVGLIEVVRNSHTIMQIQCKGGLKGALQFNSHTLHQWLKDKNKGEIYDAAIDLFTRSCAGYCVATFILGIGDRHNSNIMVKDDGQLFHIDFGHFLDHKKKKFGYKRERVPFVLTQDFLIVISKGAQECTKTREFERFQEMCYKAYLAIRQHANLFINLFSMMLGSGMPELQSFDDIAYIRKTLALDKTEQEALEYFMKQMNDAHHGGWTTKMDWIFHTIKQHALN
Chain of PI3Kα (alpha) (P27986 whole entry partner): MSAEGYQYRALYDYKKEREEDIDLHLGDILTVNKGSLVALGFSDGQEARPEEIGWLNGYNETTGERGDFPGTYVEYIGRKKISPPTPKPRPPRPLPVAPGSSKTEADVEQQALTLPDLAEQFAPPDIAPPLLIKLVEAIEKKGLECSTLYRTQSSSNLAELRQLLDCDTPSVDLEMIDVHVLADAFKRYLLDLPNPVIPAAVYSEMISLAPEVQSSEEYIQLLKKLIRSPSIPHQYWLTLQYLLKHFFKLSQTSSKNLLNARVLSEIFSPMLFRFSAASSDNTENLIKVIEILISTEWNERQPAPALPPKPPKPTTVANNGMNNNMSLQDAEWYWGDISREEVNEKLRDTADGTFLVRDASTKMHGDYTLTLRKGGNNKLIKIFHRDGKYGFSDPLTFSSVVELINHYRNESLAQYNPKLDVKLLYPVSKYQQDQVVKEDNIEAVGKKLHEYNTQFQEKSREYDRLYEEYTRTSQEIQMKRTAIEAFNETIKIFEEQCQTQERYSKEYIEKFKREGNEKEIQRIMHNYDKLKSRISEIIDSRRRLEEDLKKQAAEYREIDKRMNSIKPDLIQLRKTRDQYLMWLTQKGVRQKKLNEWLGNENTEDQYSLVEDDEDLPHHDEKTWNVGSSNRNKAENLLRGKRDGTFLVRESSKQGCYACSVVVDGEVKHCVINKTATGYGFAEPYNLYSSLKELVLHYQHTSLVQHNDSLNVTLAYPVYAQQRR

The first assay has as its target PI3Kα (alpha) (Homo sapiens (Human), UniProt P42336). Briefly: p110α (alpha) PI3K Binding Assay (ADP-Glo lipid kinase reaction). The format is biochemical. As to conditions: PI3K alpha 0.2 nM, ATP 40 μM, PIP2:3PS 50 μM, 120 min, room temperature; Ki by Morrison Equation; read-out: PI3Kα-(alpha) ATP (Ki) micromolar. The procedure, abridged:
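Enzyme with PIP2:3PS lipid substrate and ATP/MgCl2 in 50 mM HEPES, 50 mM NaCl, 3 mM MgCl2, 0.01% BSA, 1% DMSO, 120 min at room temperature. ADP formed detected by ADP-Glo luminescence. Ki from 10-point dose-response curves via the Morrison equation.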
In the case of `C[C@H](Oc1cc2c3c(c1)nc(-c1ccc(-c4nc[nH]n4)cc1)n3CCCCO2)C(N)=O` [Example 243, (S)-2-((1-(4-(1H-1,2,4-Triazol-3-yl)phenyl)-7,8,9,10-tetrahydro-6-oxa-2,10a-diazacycloocta[cd]inden-4-yl)oxy)propanamide], the Ki is below 0.02 nM.
In the case of `C[C@H](Oc1cc2c3c(c1)nc(-c1ccc4nc(N)cnc4c1)n3CCCCO2)C(N)=O` [Example 244, (S)-2-((1-(2-Aminoquinoxalin-6-yl)-7,8,9,10-tetrahydro-6-oxa-2,10a-diazacycloocta[cd]inden-4-yl)oxy)propanamide], the Ki was below 0.02 nM.
The same measure, in the same setting: with `C[C@@H](Oc1cc2c3c(c1)nc(-c1ccc4oc(N)nc4c1)n3CCCCO2)C(N)=O` [Example 245, (R)-2-((1-(2-Aminobenzo[d]oxazol-5-yl)-7,8,9,10-tetrahydro-6-oxa-2,10a-diazacycloocta[cd]inden-4-yl)oxy)propanamide] the figure was 0.032 nM; with `NC(=O)[C@@H](Nc1cc2c3c(c1)nc(-c1ccc4sc(N)nc4c1)n3CCCCO2)C1CC1` [Example 246, (S)-2-((1-(2-Aminobenzo[d]thiazol-5-yl)-7,8,9,10-tetrahydro-6-oxa-2,10a-diazacycloocta[cd]inden-4-yl)amino)-2-cyclopropylacetamide], below 0.02 nM; with `C[C@H](Oc1cc2c3c(c1)nc(-c1ccc4nc(N)sc4c1)n3CCCCO2)C(N)=O` [Example 248, (S)-2-((1-(2-Aminobenzo[d]thiazol-6-yl)-7,8,9,10-tetrahydro-6-oxa-2,10a-diazacycloocta[cd]inden-4-yl)oxy)propanamide], 0.03 nM.
In the case of `C[C@H](Oc1cc2c3c(c1)nc(-c1cc(F)c4oc(N)nc4c1)n3CCCCO2)C(N)=O` [Example 249, (S)-2-((1-(2-Amino-7-fluorobenzo[d]oxazol-5-yl)-7,8,9,10-tetrahydro-6-oxa-2,10a-diazacycloocta[cd]inden-4-yl)oxy)propanamide], the Ki was below 0.02 nM.
Still for that read-out and setting: the same measure for `NC(=O)[C@@H]1CCCN1c1cc2c3c(c1)nc(-c1ccc4oc(N)nc4c1)n3CCCCO2` [Example 250, (S)-1-(1-(2-Aminobenzo[d]oxazol-5-yl)-7,8,9,10-tetrahydro-6-oxa-2,10a-diazacycloocta[cd]inden-4-yl)pyrrolidine-2-carboxamide]: below 0.02 nM.
Same read-out and setting: the same measure for `C[C@@H]1Cn2c(-c3ccc4oc(N)nc4c3)nc3cc(O[C@H](C)C(N)=O)cc(c32)O1` [Example 251, (R)-2-(((R)-2-(2-Aminobenzo[d]oxazol-5-yl)-4-methyl-3,4-dihydro-5-oxa-1,2a-diazaacenaphthylen-7-yl)oxy)propanamide]: 2.27 nM; for `C[C@@H]1Cn2c(-c3ccc4oc(N)nc4c3)nc3cc(O[C@@H](C)C(N)=O)cc(c32)O1` [Example 252, (S)-2-(((R)-2-(2-Aminobenzo[d]oxazol-5-yl)-4-methyl-3,4-dihydro-5-oxa-1,2a-diazaacenaphthylen-7-yl)oxy)propanamide]: 0.221 nM.
For `Nc1nc2cc(-n3nc4cc(Br)cc5c4c3CCCO5)ccc2o1` [Example 253, 5-(4-Bromo-8,9-dihydrooxepino[4,3,2-cd]indazol-1(7H)-yl)benzo[d]oxazol-2-amine], the Ki is 50.8 nM.
For `C[C@@H](C(N)=O)N(C)c1cc2c3c(c1)nc(-c1ccc4oc(N)nc4c1)n3CCCCO2` [Example 254, (S)-2-((1-(2-Aminobenzo[d]oxazol-5-yl)-7,8,9,10-tetrahydro-6-oxa-2,10a-diazacycloocta[cd]inden-4-yl)(methyl)amino)propanamide], the Ki is below 0.02 nM.
`C[C@@H](C(N)=O)N(C)c1cc2c3c(c1)nc(-c1ccc4nc(N)sc4c1)n3CCCCO2` [Example 255, (S)-2-((1-(2-Aminobenzo[d]thiazol-6-yl)-7,8,9,10-tetrahydro-6-oxa-2,10a-diazacycloocta[cd]inden-4-yl)(methyl)amino)propanamide]: the inhibition constant (Ki) came to 0.149 nM.
Same read-out and setting: with `C[C@H](Oc1cc2c3c(c1)nc(-c1cc(F)c4oc(N)nc4c1)n3CCCO2)C(N)=O` [Example 258, (S)-2-((1-(2-Amino-7-fluorobenzo[d]oxazol-5-yl)-8,9-dihydro-7H-6-oxa-2,9a-diazabenzo[cd]azulen-4-yl)oxy)propanamide] the figure was 0.09 nM.
As to `C[C@H](Oc1cc2c3c(c1)nc(-c1cc(F)c4oc(N)nc4c1F)n3CCCCO2)C(N)=O` [Example 261, (S)-2-((1-(2-Amino-4,7-difluorobenzo[d]oxazol-5-yl)-7,8,9,10-tetrahydro-6-oxa-2,10a-diazacycloocta[cd]inden-4-yl)oxy)propanamide], the Ki is below 0.02 nM.
`NC(=O)[C@@H]1COCCN1c1cc2c3c(c1)nc(-c1ccc4nc(N)sc4c1)n3CCCCO2` [Example 262, (S)-4-(1-(2-Aminobenzo[d]thiazol-6-yl)-7,8,9,10-tetrahydro-6-oxa-2,10a-diazacycloocta[cd]inden-4-yl)morpholine-3-carboxamide]: the Ki is 1.95 nM.
Take `C[C@@H](Oc1cc2c3c(c1)nc(-c1cc(F)c4oc(N)nc4c1)n3CCCO2)C(N)=O` [Example 263, (R)-2-((1-(2-Amino-7-fluorobenzo[d]oxazol-5-yl)-8,9-dihydro-7H-6-oxa-2,9a-diazabenzo[cd]azulen-4-yl)oxy)propanamide]: the Ki was determined as 0.346 nM.
Same read-out and setting: the same measure for `C[C@@H](C(N)=O)N(C)c1cc2c3c(c1)nc(-c1cc(F)c4oc(N)nc4c1)n3CCCCO2` [Example 264, (S)-2-((1-(2-Amino-7-fluorobenzo[d]oxazol-5-yl)-7,8,9,10-tetrahydro-6-oxa-2,10a-diazacycloocta[cd]inden-4-yl)(methyl)amino)propanamide]: below 0.02 nM; for `C[C@H](Oc1cc2c3c(c1)nc(-c1ccc4nc(N)sc4n1)n3CCCCO2)C(N)=O` [Example 265, (S)-2-((1-(2-Aminothiazolo[5,4-b]pyridin-5-yl)-7,8,9,10-tetrahydro-6-oxa-2,10a-diazacycloocta[cd]inden-4-yl)oxy)propanamide]: below 0.02 nM; for `C[C@H](Oc1cc2c3c(c1)nc(-c1ccc4oc(N)nc4n1)n3CCCO2)C(N)=O` [Example 266, (S)-2-((1-(2-Aminooxazolo[4,5-b]pyridin-5-yl)-8,9-dihydro-7H-6-oxa-2,9a-diazabenzo[cd]azulen-4-yl)oxy)propanamide]: 0.108 nM.
Regarding `C[C@H](Oc1cc2c3c(c1)nc(-c1ccc(-c4nc[nH]n4)c(F)c1)n3CCCCO2)C(N)=O` [Example 269, (S)-2-((1-(3-Fluoro-4-(1H-1,2,4-triazol-3-yl)phenyl)-7,8,9,10-tetrahydro-6-oxa-2,10a-diazacycloocta[cd]inden-4-yl)oxy)propanamide], the Ki is below 0.02 nM.
Still for that read-out and setting: with `CC[C@H](Oc1cc2c3c(c1)nc(-c1ccc4oc(N)nc4c1)n3CCCCO2)C(N)=O` [Example 271, (S)-2-((1-(2-Aminobenzo[d]oxazol-5-yl)-7,8,9,10-tetrahydro-6-oxa-2,10a-diazacycloocta[cd]inden-4-yl)oxy)butanamide] the figure was below 0.02 nM.

The assay is the same for the next values; noted with them: read-out: PI3Kα-(alpha) ATP (Ki) micromolar.
As to `NC(=O)[C@@H]1CCCN1c1cc2c3c(nc(-c4ccc5oc(N)nc5c4)n3CCCCO2)c1F` [Example 247, (S)-1-(1-(2-Aminobenzo[d]oxazol-5-yl)-3-fluoro-7,8,9,10-tetrahydro-6-oxa-2,10a-diazacycloocta[cd]inden-4-yl)pyrrolidine-2-carboxamide], the Ki came to 0.024 nM.
